The source of these data is patent US20180360810A1, “NUPHARIDINE COMPOUNDS AND DERIVATIVES THEREOF FOR THE TREATMENT OF CYSTEINE PROTEASE RELATED DISEASES” (B. G. NEGEV TECHNOLOGIES AND APPLICATIONS LTD., AT …, priority 2015, published 2018).

What all share (assay type): biochemical
The target of one assay is T1, Human Cathepsin S (Homo sapiens, UniProt P25774).
T1 construct: purchased
In words: Cathepsin S fluorometric inhibition assay. The note with it: substrate ES002; pH 4.5; molarity calculated on assumed molecular weight of 526 daltons; read-out: IC50 (Nanomolar). The method, then: (§1) Inhibition assays were performed in triplicates using 96 well plates transparent for Calpain, Trypsin, Papain, Cathepsin L and Cathepsin B (167008; Nunc, Roskilde, Denmark), or black for Cathepsin S, Cathepsin D and Insulyzin (ide) (Greiner 96 Polystyrol GRE96fb) according to manufacturers' instructions. Briefly, reaction mixture of 100 μl contained: 45 μl of enzyme in assay buffer, 5 μl of inhibitors diluted in DMSO. 50 μl substrate prepared in assay buffer according to manufacturers' instructions. The inhibitor was serially diluted in DMSO to concentrations from 0.0075 μg/μL to 0.0000075 μg/μL. 5 μl DMSO was added to control sample. Cathepsin substrate mix was added last just before starting the fluorometric measurement. Data was collected for 1.5 h at 60 sec intervals. Molarity of inhibitors were calculated based on assumed molecular weight of 526 daltons as a reference value for comparative evaluations.

In the next assay the target is T2, Human Cathepsin L (Homo sapiens, UniProt P07711).
T2 construct: purchased
T2 sequence (P07711 114-333): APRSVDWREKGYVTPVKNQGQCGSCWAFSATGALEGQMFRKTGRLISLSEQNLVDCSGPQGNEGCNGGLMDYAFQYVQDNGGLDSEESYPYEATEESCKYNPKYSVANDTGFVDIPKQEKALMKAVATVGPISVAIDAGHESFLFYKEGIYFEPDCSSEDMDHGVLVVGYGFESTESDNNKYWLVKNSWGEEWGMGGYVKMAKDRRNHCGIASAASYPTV
In words: Cathepsin L fluorometric inhibition assay. The note with it: substrate Ac-FR-AFC; CTSL Assay Buffer; molarity calculated on assumed molecular weight of 526 daltons; read-out: IC50 (Nanomolar). As for the experimental part:
as §1

The next assay addresses T3, Human rCathepsin D (Homo sapiens, UniProt P07339).
T3 construct: purchased
Nature of the assay: Cathepsin D fluorometric inhibition assay. The note with it: substrate ES001; pH 3.5; molarity calculated on assumed molecular weight of 526 daltons; read-out: IC50 (Nanomolar). As for the experimental part: as §1

The next assay concerns the target T4, Human Insulyzin (ide) (Homo sapiens, UniProt P14735).
T4 construct: purchased
T4 sequence (P14735 1-1019): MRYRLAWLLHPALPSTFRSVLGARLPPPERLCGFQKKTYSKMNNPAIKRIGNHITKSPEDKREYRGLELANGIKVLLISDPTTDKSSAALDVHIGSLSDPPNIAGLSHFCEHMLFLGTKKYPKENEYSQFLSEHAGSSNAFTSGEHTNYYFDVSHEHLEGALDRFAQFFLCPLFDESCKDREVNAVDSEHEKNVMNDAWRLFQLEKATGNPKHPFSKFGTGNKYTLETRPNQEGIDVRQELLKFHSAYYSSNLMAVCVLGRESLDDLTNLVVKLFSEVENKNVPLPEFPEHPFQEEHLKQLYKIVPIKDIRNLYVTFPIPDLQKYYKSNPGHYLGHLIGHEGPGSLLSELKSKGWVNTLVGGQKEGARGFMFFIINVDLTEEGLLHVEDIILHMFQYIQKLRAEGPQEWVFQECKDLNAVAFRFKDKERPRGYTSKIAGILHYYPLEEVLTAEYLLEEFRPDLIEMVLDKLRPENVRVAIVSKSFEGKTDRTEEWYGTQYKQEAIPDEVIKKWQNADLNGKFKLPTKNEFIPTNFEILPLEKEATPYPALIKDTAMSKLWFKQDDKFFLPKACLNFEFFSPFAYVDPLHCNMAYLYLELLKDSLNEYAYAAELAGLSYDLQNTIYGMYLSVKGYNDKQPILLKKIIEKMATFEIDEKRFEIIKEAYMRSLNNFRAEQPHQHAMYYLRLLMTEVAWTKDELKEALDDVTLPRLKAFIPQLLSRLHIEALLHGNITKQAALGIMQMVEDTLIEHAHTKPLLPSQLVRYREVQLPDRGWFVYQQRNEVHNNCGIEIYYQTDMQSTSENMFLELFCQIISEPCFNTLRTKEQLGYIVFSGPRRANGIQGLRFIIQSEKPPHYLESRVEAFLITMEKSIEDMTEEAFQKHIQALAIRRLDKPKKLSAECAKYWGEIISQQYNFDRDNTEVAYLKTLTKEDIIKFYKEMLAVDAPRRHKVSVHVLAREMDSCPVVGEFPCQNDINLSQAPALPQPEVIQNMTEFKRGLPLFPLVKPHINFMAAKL
Nature of the assay: Insulyzin (ide) fluorometric inhibition assay. The note with it: substrate ES005; pH 7.5; molarity calculated on assumed molecular weight of 526 daltons; read-out: IC50 (Nanomolar). As for the experimental part: as §1

Another assay concerns the target T5, Human Cathepsin B (Homo sapiens, UniProt P07858).
T5 construct: purchased
Nature of the assay: Cathepsin B inhibition assay, Casein FITC. The note with it: substrate Casein FITC; pH 6.5; molarity calculated on assumed molecular weight of 526 daltons; read-out: IC50 (Nanomolar). As for the experimental part: as §1

The subject of a further assay is Trypsin. Nature of the assay: Trypsin inhibition assay, Casein FITC. The note with it: substrate Casein FITC; 0.3M potassium chloride, 0.1 mM EDTA, 3 mM DTT pH 6.5. As for the experimental part: as §1
The specificity of the reaction was tested by treatment of trypsin, a serine protease with the above mentioned compounds and no inhibitory activity was found (as shown in FIG. 2).

The test system of the next assay is Calpain. Nature of the assay: Calpain inhibition assay, Casein FITC. The note with it: substrate Casein FITC; 0.3M potassium chloride, 0.1 mM EDTA, 3 mM DTT pH 6.5, 2 mM CaCl2. As for the experimental part: as §1
For a further assay, the target named is T6, papain (Carica papaya, UniProt P00784).
T6 sequence (P00784 134-345): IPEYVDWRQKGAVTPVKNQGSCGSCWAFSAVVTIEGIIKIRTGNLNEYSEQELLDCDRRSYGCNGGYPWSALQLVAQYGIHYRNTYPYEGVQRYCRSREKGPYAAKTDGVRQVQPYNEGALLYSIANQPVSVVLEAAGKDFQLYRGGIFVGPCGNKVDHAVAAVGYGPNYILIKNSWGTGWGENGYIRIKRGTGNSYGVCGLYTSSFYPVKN
In words: Protease Fluorescent Detection Kit, inhibition of papain activity. The note with it: FITC-labeled casein substrate; 10 μg papain in 50 μL; various concentrations of inhibitor. The method, then:
The Protease Fluorescent Detection Kit of Sigma Aldrich was used for measurement of protease activity using fluorometry. In exemplary embodiments, the method is based on the proteolytic hydrolysis of a proprietary formulation of a FITC-labeled casein substrate. The reaction mixture contained in a final volume of 50 μL, 10 μg papain and various concentrations of the candidate inhibitor.

T3 sequence (P07339 65-412): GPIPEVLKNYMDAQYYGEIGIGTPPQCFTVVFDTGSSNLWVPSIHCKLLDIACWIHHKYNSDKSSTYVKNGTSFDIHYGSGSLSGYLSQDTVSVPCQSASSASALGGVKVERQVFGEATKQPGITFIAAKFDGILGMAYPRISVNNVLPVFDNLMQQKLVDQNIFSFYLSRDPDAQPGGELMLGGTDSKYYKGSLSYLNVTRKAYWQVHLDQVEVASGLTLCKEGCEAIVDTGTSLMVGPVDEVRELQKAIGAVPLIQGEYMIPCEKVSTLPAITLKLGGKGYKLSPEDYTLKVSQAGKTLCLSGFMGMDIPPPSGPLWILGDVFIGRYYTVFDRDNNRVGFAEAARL
T1 sequence (P25774 115-331): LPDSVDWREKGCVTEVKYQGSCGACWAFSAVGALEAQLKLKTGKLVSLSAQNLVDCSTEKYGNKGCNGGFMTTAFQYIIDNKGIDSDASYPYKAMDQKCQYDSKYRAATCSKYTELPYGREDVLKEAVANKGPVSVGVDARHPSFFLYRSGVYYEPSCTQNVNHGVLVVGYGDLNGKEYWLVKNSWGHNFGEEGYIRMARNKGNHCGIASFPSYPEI

With “6 6′dihydroxybinupharidine [Nup-3 sigma]”, the IC50 on Human Cathepsin S was 0.08 nM; on Human Cathepsin L it was 0.266 nM; at Human rCathepsin D it was 0.07 nM; at Human Insulyzin (ide), 0.33 nM; on Human Cathepsin B, 21.8 nM. Moreover, the “IC50 (Microgram/ml / Nanomolar)” value with Trypsin and with Calpain was “no inhibition” throughout.
As for 6 hydroxybinupharidine [Nup-4 sigma], the IC50 at Human Cathepsin L was 0.056 nM; at Human rCathepsin D, 0.32 nM; at Human Insulyzin (ide) it was 0.85 nM; on Human Cathepsin B it was 29.4 nM.
As for `C1=[N+](CCCCc2ccccc2)CCCC12CC1(C=[N+](CCCCCc3ccccc3)CC1)CS2` (stereo not drawn) [6-61], the “inhibition of papain activity (FIG. 1)” value against papain is reported as “demonstrated an inhibition of papain activity”.

The term IC50 denotes the concentration needed to halve the response being measured.
